Results taken from patent US20240009314A1, “COMPOSITIONS AND METHODS FOR TARGETING TUMOR-ASSOCIATED MACROPHAGES” (Resolute Science, priority 2020, published 2024).

Columns and labels:
GL261 cells = test: Anti-tumor activity in immunocompetent GL261 glioma mouse model; assay type: in vivo
Procedure: The anti-tumor activity of Target-5 was assessed in vivo using an immunocompetent glioma mouse model. Three distinct doses of Target-5 were evaluated against Temozolomide, an FDA-approved chemotherapeutic agent, and a vehicle control in C57BL/6 mice.
Specifically, female C57BL/6 mice (Jackson Laboratories) were inoculated with 5×10^6 GL261 cells (mycoplasma tested-negative) with 96% viability and 100% tumor take rate (cell passages prior to plating (#7)).
Target-5 was formulated in 0.9% saline and the mice were treated twice a week with either 5 mg/kg, 7.5 mg/kg, or 10 mg/kg Target-5 by tail vein injection. The dosing volume was adjusted for body weight. Temozolomide was formulated in 10% DMSO in 0.9% sodium chloride and mice were treated twice a week by gavage at a dosage of 12.5 mg/kg. n=10 for each group.

MC38 tumor cells = test: Anti-tumor activity in MC38 colon cancer mouse model; assay type: in vivo; conditions: 40 mg/kg intraperitoneally q3 days×4
Procedure: Specifically, 8- to 12-week-old C57BL/6 female mice (Charles River Laboratories) were inoculated with 5×10^5 MC38 tumor cells in 0% Matrigel subcutaneously in the flank in a volume of 0.1 mL/mouse on Study Day 0. A pair match was performed when the tumors reached an average size of 80-120 mm 3 at which time treatment began.
The dosing volume was adjusted for body weight. Gemcitabine was administered at a dosage of 40 mg/kg and delivered intraperitoneally q3 days×4. Tumor was measured by calipers twice a week. Body weight was measured every day for 5 days and then bi-weekly to the end of the study. (n=10/group). The endpoint of study was when tumor volume reached 1500 mm^3.

Structure (SMILES) | change in body weight (GL261 cells; any treatment group, FIG. 8C) | Mean tumor volume (GL261 cells; day 21, 12.5 mg/kg twice a week by gavage) [mm^3] | tumor volume compared to Target-5 groups (MC38 tumor cells)
Cn1nnc2c(C(N)=O)ncn2c1=O [temozolomide] | no significant change | 302.6 | 
Nc1ccn([C@@H]2O[C@H](CO)[C@@H](O)C2(F)F)c(=O)n1 [Gemcitabine] |  |  | appeared to reduce tumor volume more
